Test results taken from patent US4762852A, “Benzodioxepanne, process for the synthesis thereof and use thereof” (Societe d'Etudes Scientifiques et Industrielles de l'Ile de …, priority 1985, dated 1988).
Like-named read-outs stand apart in the source and are kept apart here.

Tests used:
[1] = target: dopaminergic D2 receptors (Homo sapiens, UniProt P14416); test: in-vitro binding to dopaminergic D2 receptors, ligand 3H-spiperone; details: read-out: IC50, D2 receptor binding
Description: (1) The compound bound very strongly in-vitro to dopaminergic D2 receptors.

D1 receptor = D1 receptor (Homo sapiens, UniProt P21728); test: in-vitro binding to D1 receptor against 3H-piflutixol; details: second of two values
partition coefficient = type: physicochemical
solubility = type: physicochemical
[2] = test system: stereotypies caused in rats by apomorphine; test: antagonism of stereotypies caused in rats by 0.5 mg/kg subcutaneous apomorphine (Europ. J. Pharmacol., 50, 291-300, 1978); type: in vivo; details: rat
Description: (2) The compound of the invention was a powerful anti-dopaminergic agent at the level of the central nervous system. Indeed, in the test in respect of stereotypies caused in rats by apomorphine, a dopaminergic agonistic agent, the compound antogonized that behavioral response at very low levels. Thus, when stereotypies were caused by 0.5 mg/kg of subcutaneous apomorphine, the inhibitor-50 dose of the compound was 0.52 mg/kg intraperitoneally. This test was conducted in accordance with the procedure in Europ. J. Pharmacol., 50, pp. 291-300 (1978). […] The reference compound is disclosed in U.S. Pat. Nos. 4,186,135 (Example 43) and 4,248,885. In another test, the inhibitor doses 50 of the compound were evaluated according to Europ. J. Pharm. 50, pp. 291-300 (1978), the compound being administered at different times (15, 30, 60, 120 and 360 minutes) prior to administration of the agonistic agent, in this case apomorphine, in a dose of 0.5 mg/kg subcutaneous. It is thus possible to judge the power of the antagonism produced by the compound at those different times and also to evaluate the duration of the effect of the compound. […] Catalepsy appeared in fact, 11 minutes after subcutaneous injection of the compound and lasted for more than 5 hours and up to 12 hours in a rat, depending on the method of observation of the phenomenon.

[3] = test system: stereotypies caused in rats by apomorphine; test: antagonism of stereotypies caused by 1.25 mg/kg intravenous apomorphine (Arzn. Forsch. 10, 1003-1005, 1960); type: in vivo; details: compound subcutaneous, apomorphine 1.25 mg/kg intravenous; for ED50: Rattus norvegicus, sc, read-out: ID50, apomorphine stereotypies
Description: (2) The compound of the invention was a powerful anti-dopaminergic agent at the level of the central nervous system. Indeed, in the test in respect of stereotypies caused in rats by apomorphine, a dopaminergic agonistic agent, the compound antogonized that behavioral response at very low levels. […] […] […] The reference compound is disclosed in U.S. Pat. Nos. 4,186,135 (Example 43) and 4,248,885.

[4] = test system: stereotypies caused in a rat by amphetamine; test: antagonism of stereotypies caused in a rat by amphetamine, 10 mg/kg intravenous (Arz. Forsch. 11, 932-938, 1961); type: in vivo; details: sc
[5] = test system: stereotypies in relation to amphetamine in a rat; test: antagonism of amphetamine stereotypies in a rat, amphetamine injected intraperitoneally; type: in vivo; details: read-out: ID50, amphetamine stereotypies
rat [6] = test: cataleptigenic effect (Arz. Forsch. 12, 964-968, 1962); type: in vivo; details: sc, subcutaneous
Description: (§1) The cataleptigenic dose 50, as determined in accordance with Arz. Forsch. 12, pp. 964-968 (1962), was 5.3 mg/kg subcutaneously in a rat. Another test gave a value which was slightly higher, 8.5 mg/kg subcutaneous, also in a rat.

rat [7] = test: cataleptigenic effect, another test; type: in vivo; details: sc, subcutaneous, read-out: cataleptigenic dose 50
Description: as §1

rat [8] = test: kinetics of the cataleptigenic effect; type: in vivo; details: after subcutaneous injection
Description: In another test, the inhibitor doses 50 of the compound were evaluated according to Europ. J. Pharm. 50, pp. 291-300 (1978), the compound being administered at different times (15, 30, 60, 120 and 360 minutes) prior to administration of the agonistic agent, in this case apomorphine, in a dose of 0.5 mg/kg subcutaneous. It is thus possible to judge the power of the antagonism produced by the compound at those different times and also to evaluate the duration of the effect of the compound. […] Catalepsy appeared in fact, 11 minutes after subcutaneous injection of the compound and lasted for more than 5 hours and up to 12 hours in a rat, depending on the method of observation of the phenomenon.

[9] = test system: spontaneous motility of a mouse; test: reduction of spontaneous motility of a mouse, photoelectric method (J. Pharm. Exp. Ther. 101, 156-162, 1951); type: in vivo; details: intraperitoneal; for ED50: ip
Description: (§2) Exp. Ther. 101, pp. 156-162 (1951).
The kinetics of the inhibitor effect of the compound were studied in mice by evaluation of the inhibitor doses 50 at different distances from intraperitoneal injection of the compound. The procedure used was the photoelectric method described in J. Pharm. Exp. Ther. 101, pp. 156-162 (1951). […] Then, the variation in the ID50 between 0.55 and 0.9 indicated persistence of the effect up to 5 hours. The effect then became less clear, but could still be observed more than 5 hours after administration, which is in accordance with the duration attributed to the cataleptigenic effect.

[10] = test system: spontaneous motility of a mouse; test: reduction of spontaneous motility of a mouse, Activograph Method; type: in vivo; details: ip, intraperitoneal, read-out: ID50, reduction of spontaneous motility
Description: as §2

vigilance = vigilance of treated animals at higher neuroleptic doses; type: in vivo; details: higher neuroleptic doses which reduce motor function
Description: The compound of the invention has the pharmacological characteristics of a powerful neuroleptic, acting rapidly and in a long-term fashion, and, consequently, can be applied in states of agitation of acute and chronic psychoses. For this and other purposes the daily therapeutic dosage can be from about 5 to 50 mg/day in one or more doses, depending upon the severity of the psychoses. The compound of the invention can be administered in any number of conventional forms such as capsules, tablets, pills, in granulated form or as an injectable solution. Many methods for compounding these preparations are well-known to the art. Substances (or carriers) which are inert relative to the compounds of the invention can be used in these preparations, such as lactose, magnesium stearate, starch, talc, cellulose, levilite, alkali metal lauryl-sulphates, saccharose and other vehicles and carriers commonly employed in pharamaceutical preparations. The examples which follow illustrate several possible pharmaceutical preparations.

[11] = ip, compound intraperitoneal, apomorphine 0.5 mg/kg subcutaneous, read-out: inhibitor-50 dose (ID50), apomorphine stereotypies

Sequence of dopaminergic D2 receptors (P14416 whole entry): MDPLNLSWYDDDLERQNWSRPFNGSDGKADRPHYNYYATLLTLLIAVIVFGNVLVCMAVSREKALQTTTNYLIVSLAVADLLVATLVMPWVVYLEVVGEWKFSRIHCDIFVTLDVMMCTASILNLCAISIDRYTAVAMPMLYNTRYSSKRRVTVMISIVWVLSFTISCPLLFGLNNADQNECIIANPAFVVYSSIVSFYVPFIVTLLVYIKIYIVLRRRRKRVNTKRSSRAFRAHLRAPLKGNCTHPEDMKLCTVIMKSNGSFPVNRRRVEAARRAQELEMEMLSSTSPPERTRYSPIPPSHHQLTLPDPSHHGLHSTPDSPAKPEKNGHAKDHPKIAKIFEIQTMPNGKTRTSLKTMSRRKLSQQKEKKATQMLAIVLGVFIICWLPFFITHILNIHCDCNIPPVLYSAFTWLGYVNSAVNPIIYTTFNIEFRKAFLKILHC
Sequence of D1 receptor (P21728 whole entry): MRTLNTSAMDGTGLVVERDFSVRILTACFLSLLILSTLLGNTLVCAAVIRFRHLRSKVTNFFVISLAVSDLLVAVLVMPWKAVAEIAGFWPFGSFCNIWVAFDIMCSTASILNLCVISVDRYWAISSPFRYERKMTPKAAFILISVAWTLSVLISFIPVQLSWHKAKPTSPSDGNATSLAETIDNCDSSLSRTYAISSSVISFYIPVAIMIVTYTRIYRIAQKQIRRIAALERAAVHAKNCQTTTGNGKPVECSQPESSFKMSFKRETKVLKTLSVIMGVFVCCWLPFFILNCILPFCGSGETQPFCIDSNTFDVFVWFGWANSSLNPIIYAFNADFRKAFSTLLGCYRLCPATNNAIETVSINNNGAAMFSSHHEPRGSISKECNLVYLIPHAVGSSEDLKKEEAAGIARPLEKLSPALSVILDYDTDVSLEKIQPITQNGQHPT

SMILES: CCS(=O)(=O)c1cc2c(c(C(=O)NCC3CCCN3CC3=CCCCC3)c1)OCCCO2 (stereo not shown) [compound of the invention, N-(1-cyclohexenylmethyl-2 pyrrolidylmethyl)-8-ethylsulphonyl-1,5-benzodioxepanne 6-carboxamide]
- IC50 [1]: 0.00316 µM
- IC50 (D1 receptor): 63.1 µM
- logP (partition coefficient): 0.519
- solubility in dilute acids (solubility; dilute acids): Soluble
- solubility in cold ethyl acetate (solubility; ethyl acetate, cold): soluble when cold in 30 volumes
- solubility in hot ethyl acetate (solubility; hot ethyl acetate (2 volumes)): Highly soluble
- solubility in hot methanol (solubility; hot methanol (2 volumes)): Highly soluble
- solubility in cold methanol (solubility; methanol, cold): very weakly soluble
- ED50 [2, 11]: 0.52 mg/kg
- ED50 ([2]; sc, 0.25 h, compound subcutaneous 15 minutes before apomorphine 0.5 mg/kg subcutaneous, read-out: ID50, apomorphine stereotypies, 15 minutes after injection): 0.066 mg/kg
- ED50 ([2]; sc, compound subcutaneous, apomorphine 0.5 mg/kg subcutaneous, read-out: ID50, apomorphine stereotypies): 0.039 mg/kg
- ED50 [3]: 0.092 mg/kg
- ID50, apomorphine stereotypies ([3]; rat): 0.082 mg/kg
- ED50 ([4]; rat, compound subcutaneous, amphetamine 10 mg/kg intravenous, read-out: inhibitor dose 50 (ID50), amphetamine stereotypies): 0.062 mg/kg
- ED50 ([5]; ip, amphetamine intraperitoneal, other experimental conditions): 0.4 mg/kg
- ED50 ([5]; sc, compound subcutaneous, action already found at the 12th minute): 0.4 mg/kg
- ED50 (rat [6]; rat, read-out: cataleptigenic dose 50): 5.3 mg/kg
- ED50 (rat [7]): 8.5 mg/kg
- time to appearance of catalepsy (rat [8]): 11 min
- time after administration at which inhibitor effect on motility could still be observed [9]: more than 5 hours
- ED50 ([9]; 5 min, 5 minutes after injection, read-out: ID50, reduction of motility after 5 minutes): 0.69 mg/kg
- ED50 ([9]; photoelectric method, read-out: ID50, reduction of spontaneous motility): 0.58 mg/kg
- ED50 [10]: 0.93 mg/kg
- vigilance at higher neuroleptic doses (vigilance): retain a certain degree of vigilance

SMILES: CCN1CCCC1CNC(=O)c1cc(S(=O)(=O)CC)cc2c1OCCCO2 (stereo not shown) [reference compound, N-(1-ethyl-2-pyrrolidinylmethyl) 8-ethylsulphonyl-1,5-benzodioxepanne-6-carboxamide, reference compound]
- ED50 [2, 11]: 36.4 mg/kg
- ED50 [3]: 156 mg/kg
- ED50 ([4]; Rattus norvegicus, subcutaneous, amphetamine route and dose not stated, read-out: ID50, amphetamine): 39.4 mg/kg
- ED50 (rat [6]; Rattus norvegicus, which of the two catalepsy tests is not stated, read-out: ED50, cataleptigenic effect): 59.5 mg/kg
